Patent publication US20240368096A1 (Enanta Pharmaceuticals, Inc., priority 2022, published 2024)
Where two headings read alike, the source gives them in different places.

Assays:
HBV = HBV infection in HepG2-NTCP cells (HBeAg AlphaLISA in supernatants); type: cell-based; conditions: Hepatitis B virus, 192 h
In short: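 Readout was day-8 supernatant HBeAg by AlphaLISA, with EC50 set against DMSO controls and binned A<0.1 μM, B 0.1-1 μM, C>1 μM. Compounds were added 2 h before HBV (2000 GE/cell, 4% PEG, 0.5% DMSO) to HepG2-NTCP A3 cells; from day 1 medium held 2.5% DMSO.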

HDV = HDV infection in primary human hepatocytes (PHHs) and RNA quantification (RT-qPCR); type: cell-based; conditions: Hepatocyte, 192 h, HDV infection of primary human hepatocytes, viral RNA at day 8 post infection
From the text: Primary human hepatocytes (Thermo Fisher Scientific) were thawed in Williams E Medium with CM3000 supplement pack (Thermo Fisher Scientific) and seeded at 70,000 cells/well on collagen-coated 96-well plate. Six hours post-seeding, cell medium was changed to Williams E Medium with CM4000 cell maintenance supplement pack for further culture (Thermo Fisher Scientific). HDV virus collected from the supernatants of HuH7-END cells was purified in the presence of 6% polyethylene glycol (PEG). Viral titer was then quantified by RT-qPCR using HDV specific primers against a reference standard. On the day of infection, compounds were 4-fold serially diluted in DMSO and pre-incubated with PHHs for two hours before infecting with 100 GE/cell of HDV in 4% PEG. On day one post infection, HDV-containing media was aspirated, cells were washed once with PBS and then maintained in 2.5% DMSO containing media for the remainder of the assay. Viral RNA was isolated using RNeasy kits at day 8 post infection and reverse transcribed into cDNA using High-Capacity RNA-to-cDNA Kit. Relative HDV gene expression was quantified by RT-qPCR after normalization to expression of a housekeeping gene. Irrespective of readout, compound concentrations that reduce viral RNA by 50% relative to DMSO controls (EC50) are reported. EC50 ranges are as follows: A<0.1 μM; B 0.1-1 μM; C>1 μM.

NTCP = target: T1, NTCP (Homo sapiens, UniProt Q14973); experiment: HepG2-NTCP preS1 binding competition assay (FITC-labeled myristoylated preS1 peptide); conditions: HepG2-NTCP cells; competition with FITC-labeled preS1 peptide
T1 construct: expressed in transfected cells; host or cells: HepG2-NTCP (clone A3, kept under puromycin)
T1 sequence (Q14973 1-349): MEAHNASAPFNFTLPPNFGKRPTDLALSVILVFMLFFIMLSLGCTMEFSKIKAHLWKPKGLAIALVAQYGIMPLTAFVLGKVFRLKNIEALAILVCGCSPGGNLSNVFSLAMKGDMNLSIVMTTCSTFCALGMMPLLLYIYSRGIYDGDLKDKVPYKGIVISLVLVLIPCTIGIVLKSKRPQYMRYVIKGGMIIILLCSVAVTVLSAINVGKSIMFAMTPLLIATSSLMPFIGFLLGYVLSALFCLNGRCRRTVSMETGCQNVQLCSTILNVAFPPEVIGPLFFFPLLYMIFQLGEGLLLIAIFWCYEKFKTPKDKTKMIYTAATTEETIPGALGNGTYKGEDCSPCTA
Procedure: HepG2-NTCP preS1 Binding Competition Assay
Myristoylated preS1 peptide (2-48 aa) conjugated to a C-terminal FITC tag was synthesized to evaluate preS1 binding to NTCP-expressing cells. HepG2-NTCP cells seeded in 384-wells were pre-treated with compounds for 2 hours prior to the addition of FITC-labeled preS1 peptide. After co-incubation for 30 minutes, unbound FITC-preS1 peptide was washed twice with PBS, and the fluorescence of preS1-FITC bound to cell surface was detected by Envision plate reader. EC50 ranges are as follows: A<0.1 μM; B 0.1-1 μM; C>1 μM.

[1] = HBV infection of HepG2-NTCP cells, HBeAg in supernatants at day 8 post infection, read-out: Cellular EC50
[2] = Donor 1, read-out: Cellular EC50 (μM) Donor 1
[3] = Donor 2, read-out: Cellular EC50 (μM) Donor 2

| SMILES | EC50 (HBV; [1]) [µM] | EC50 (NTCP) [nM] | EC50 (HDV; [2]) [µM] | EC50 (HBV; read-out: Cellular EC50 (μM)) [µM] | EC50 (HDV; [3]) [µM] |
| --- | --- | --- | --- | --- | --- |
| CN1[C@H](C2CCCCC2)CN(c2ncco2)c2cc(Cl)c(-c3ccc(F)c(C(=O)O)c3)cc2S1(=O)=O [Example 318] |  | > 1000 |  | > 1 |  |
| CN1[C@H](C2CCCCC2)CN(CC2COC2)c2cc(Cl)c(-c3ccc(F)c(C(=O)O)c3)cc2S1(=O)=O [Example 320] |  | > 1000 |  | > 1 |  |
| COC(C)(C)COC(=O)Nc1cc(-c2cc3c(cc2Cl)N(c2ccccc2)C[C@@H](C2CCCCC2)N(C)S3(=O)=O)sc1C(=O)O [Example 239, (R)-5-(7-chloro-3-cyclohexyl-2-methyl-1,1-dioxido-5-phenyl-2,3,4,5-tetrahydrobenzo[f][1,2,5]thiadiazepin-8-yl)-3-(((2-methoxy-2-methylpropoxy)carbonyl)amino)thiophene-2-carboxylic acid] | < 0.1 | < 100 |  |  |  |
| Cc1cc(-c2cc3c(cc2F)N(c2ccccc2)C[C@@H](C2CCCCC2)N(C)S3(=O)=O)sc1C(=O)O [Example 127, (R)-5-(3-cyclohexyl-7-fluoro-2-methyl-1,1-dioxido-5-phenyl-2,3,4,5-tetrahydrobenzo[f][1,2,5]thiadiazepin-8-yl)-3-methylthiophene-2-carboxylic acid] | < 0.1 | < 100 |  |  | < 0.1 |
| CCCCCCS(=O)(=O)Nc1ccc(-c2cc3c(cc2Cl)N(c2ccccc2)C[C@@H](C2CCCCC2)N(C)S3(=O)=O)cc1C(=O)O [Example 273] | < 0.1 | < 100 |  |  |  |
| CN1[C@H](C2CCCCC2)CN(c2ccccc2)c2cc(OCc3ccsc3)c(-c3ccc(F)c(C(=O)O)c3)cc2S1(=O)=O [Example 336] | < 0.1 |  | < 0.1 |  |  |
| CN1[C@H](C2CCCCC2)CN(c2nccs2)c2cc(Cl)c(-c3ccc(F)c(C(=O)O)c3)cc2S1(=O)=O [Example 317] | 0.1 to 1 | 100 to 1000 |  |  |  |
| CCOC(=O)Nc1cc(-c2cc3c(cc2Cl)N(c2ccccc2)C[C@@H](C2CCCCC2)N(C)S3(=O)=O)sc1C(=O)O [Example 240] | < 0.1 | < 100 |  |  |  |
| CCCS(=O)(=O)Nc1cc(-c2cc3c(cc2Cl)N(c2ccccc2)C[C@@H](C2CCCCC2)N(C)S3(=O)=O)sc1C(=O)O [Example 275, (R)-5-(7-chloro-3-cyclohexyl-2-methyl-1,1-dioxido-5-phenyl-2,3,4,5-tetrahydrobenzo[f][1,2,5]thiadiazepin-8-yl)-3-(propylsulfonamido)thiophene-2-carboxylic acid] | < 0.1 | < 100 |  |  |  |
| CN1[C@H](C2CCCCC2)CN(c2csc(Cl)c2)c2cc(Cl)c(-c3ccc(F)c(C(=O)O)c3)cc2S1(=O)=O [Example 316, (R)-5-(7-chloro-5-(5-chlorothiophen-3-yl)-3-cyclohexyl-2-methyl-1,1-dioxido-2,3,4,5-tetrahydrobenzo[f][1,2,5]thiadiazepin-8-yl)-2-fluorobenzoic acid] | < 0.1 | < 100 |  |  |  |
| CCOc1ccccc1N1C[C@@H](C2CCCCC2)N(C)S(=O)(=O)c2cc(-c3ccc(F)c(C(=O)O)c3)c(Cl)cc21 [Example 307] |  | > 1000 |  | > 1 |  |
| CN1[C@H](C2CCCCC2)CN(c2ccccc2)c2cc(F)c(-c3ccc(NC(=O)OCc4ccccc4)c(C(=O)O)c3)cc2S1(=O)=O [Example 235, (R)-2-(((benzyloxy)carbonyl)amino)-5-(3-cyclohexyl-7-fluoro-2-methyl-1,1-dioxido-5-phenyl-2,3,4,5-tetrahydrobenzo[f][1,2,5]thiadiazepin-8-yl)benzoic acid] | < 0.1 | < 100 |  |  |  |
| CCCS(=O)(=O)Nc1ccc(-c2cc3c(cc2Cl)N(c2ccccc2)C[C@@H](C2CCCCC2)N(C)S3(=O)=O)cc1C(=O)O [Example 274] | < 0.1 | < 100 |  |  |  |
| CN1[C@H](C2CCCCC2)CN(c2ccccc2)c2cc(OCc3c[nH]cn3)c(-c3ccc(F)c(C(=O)O)c3)cc2S1(=O)=O [Example 391] |  | > 1000 |  | > 1 |  |
| CN1[C@H](C2CCCCC2)CN(c2ccccc2)c2cc(F)c(-c3cc(F)c(C(=O)O)s3)cc2S1(=O)=O [Example 128, (R)-5-(3-cyclohexyl-7-fluoro-2-methyl-1,1-dioxido-5-phenyl-2,3,4,5-tetrahydrobenzo[f][1,2,5]thiadiazepin-8-yl)-3-fluorothiophene-2-carboxylic acid] | < 0.1 |  |  |  | < 0.1 |
| CN1[C@H](C2CCCCC2)CN(c2ccccc2)c2cc(Cl)c(-c3cc(NC(=O)OCC(F)F)c(C(=O)O)s3)cc2S1(=O)=O [Example 242] | < 0.1 | < 100 |  |  |  |
| CC(C)CN1C[C@@H](C2CCCCC2)N(C)S(=O)(=O)c2cc(-c3ccc(F)c(C(=O)O)c3)c(Cl)cc21 [Example 325] | < 0.1 | < 100 |  |  |  |
| CC(C)COC(=O)Nc1cc(-c2cc3c(cc2Cl)N(c2ccccc2)C[C@@H](C2CCCCC2)N(C)S3(=O)=O)sc1C(=O)O [Example 241] | < 0.1 | < 100 |  |  |  |

Continued, in another order:

| EC50 (HBV; [1]) [µM] | EC50 (NTCP) [nM] | SMILES | EC50 (HDV; [2]) [µM] | EC50 (HBV; read-out: Cellular EC50 (μM)) [µM] | EC50 (HDV; [3]) [µM] |
| --- | --- | --- | --- | --- | --- |
| < 0.1 |  | CN1[C@H](C2CCCCC2)CN(c2ccccc2)c2cc(OC3CC3)c(-c3ccc(F)c(C(=O)O)c3)cc2S1(=O)=O [Example 372] | < 0.1 |  |  |
| < 0.1 | < 100 | CN1[C@H](C2CCCCC2)CN(c2ccccc2)c2cc(C34CC(C(F)(F)F)(C3)C4)c(-c3ccc(F)c(C(=O)O)c3)cc2S1(=O)=O [Example 595] |  |  |  |
| < 0.1 | < 100 | COCCOc1cc2c(cc1-c1cc(F)c(C(=O)O)s1)S(=O)(=O)N(C)[C@H](C1CCCCC1)CN2c1ccccc1 [Example 486] |  |  |  |
| < 0.1 | < 100 | COCCOc1cc2c(cc1-c1ccc(F)c(C(=O)O)c1)S(=O)(=O)N(C)[C@H](C1CCCCC1)CN2c1ccccc1 [Example 388] |  |  |  |
| 0.1 to 1 | < 100 | CN1[C@H](C2CCCCC2)CN(c2ccccc2)c2cc(Cl)c(N3C[C@H]4C[C@@]4(C(=O)O)C3)cc2S1(=O)=O [Example 615] |  |  |  |
| < 0.1 | 100 to 1000 | CN1[C@H](C2CCCCC2)CN(c2ccccc2)c2cc(Cl)c(N3C[C@@H](C(=O)O)[C@H](c4ccccc4)C3)cc2S1(=O)=O [Example 613] |  |  |  |
| < 0.1 |  | CCCCCCCOc1cc2c(cc1-c1ccc(F)c(C(=O)O)c1)S(=O)(=O)N(C)[C@H](C1CCCCC1)CN2c1ccccc1 [Example 353] | < 0.1 |  |  |
| < 0.1 |  | Cc1cc(-c2cc3c(cc2OCc2ccsc2)N(c2ccccc2)C[C@@H](C2CCCCC2)N(C)S3(=O)=O)sc1C(=O)O [Example 514] | < 0.1 |  | < 0.1 |
| < 0.1 |  | CN1[C@H](C2CCCCC2)CN(c2ccccc2)c2cc(OC3CCC3)c(-c3ccc(F)c(C(=O)O)c3)cc2S1(=O)=O [Example 376] | < 0.1 |  |  |
| < 0.1 | < 100 | CN1[C@H](C2CCCCC2)CN(c2ccccc2)c2cc(Cl)c(N3CCC(F)(C(=O)O)C3)cc2S1(=O)=O (mixture of isomers) [Example 609, 1-((R)-7-chloro-3-cyclohexyl-2-methyl-1,1-dioxido-5-phenyl-2,3,4,5-tetrahydrobenzo[f][1,2,5]thiadiazepin-8-yl)-3-fluoropyrrolidine-3-carboxylic acid] |  |  |  |
| < 0.1 | < 100 | COc1cc2c(cc1-c1ccc(F)c(C(=O)O)c1)S(=O)(=O)N(C)[C@H](C1CCCCC1)CN2c1ccccc1 [Example 348] |  |  |  |
